Test results reported in patent US8648068B2, “Heterocycloalkyl-containing thienopyrimidines for pharmaceutical compositions” (Boehringer Ingelheim International GmbH, priority 2010, dated 2014).

Target: T1, human Mnk2a (Homo sapiens, UniProt Q9HBH9)
T1 construct: made in house; host or cells: E. coli BL21 (vector pGEX-4T1)
Experiment: Mnk2a in vitro kinase assay (indirect fluorescence polarization)
Format: biochemical
Conditions: GST-Mnk2a pre-activated with ERK2, 20 μM ATP, 30 μM substrate peptide; read-out: MNK2 IC50
In short: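 Indirect competitive fluorescence polarization: kinase-generated phospho-product displaces a fluorophore-labelled phospho-peptide from a phospho-specific antibody. Enzyme is N-terminal GST-Mnk2a from E. coli, activated with pre-activated ERK2 and 50 μM ATP; substrate is an amidated 12-mer peptide around eIF4E Ser209.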

T1 sequence (Q9HBH9 whole entry): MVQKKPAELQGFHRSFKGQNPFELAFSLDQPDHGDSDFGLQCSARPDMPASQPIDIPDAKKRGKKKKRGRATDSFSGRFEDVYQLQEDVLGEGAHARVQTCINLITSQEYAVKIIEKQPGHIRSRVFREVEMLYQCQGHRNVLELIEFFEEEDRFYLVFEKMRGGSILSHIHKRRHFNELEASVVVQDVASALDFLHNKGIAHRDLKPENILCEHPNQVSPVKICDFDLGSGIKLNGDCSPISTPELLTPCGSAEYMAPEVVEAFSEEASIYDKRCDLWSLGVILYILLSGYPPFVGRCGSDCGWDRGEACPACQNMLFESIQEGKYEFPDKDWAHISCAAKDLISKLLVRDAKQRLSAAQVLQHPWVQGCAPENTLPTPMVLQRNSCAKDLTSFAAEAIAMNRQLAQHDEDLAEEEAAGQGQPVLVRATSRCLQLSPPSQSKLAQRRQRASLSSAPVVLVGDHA

Compound | IC50 [nM]
Cc1c(C(=O)NCCN2CCCC2=O)sc2ncnc(Nc3ccc(F)cc3OC3CCOCC3)c12 [Example 176] | 105
Cc1c(C(=O)NCC(=O)c2ccccc2)sc2ncnc(Nc3ccc(F)cc3OC3CCCNC3)c12 (stereo not drawn) [Example 42] | 41
Cc1c(C(=O)NC2CCN(C)CC2)sc2ncnc(Nc3ccc(F)cc3OC3CCOCC3)c12 [Example 174] | 60
Cc1c(C(=O)NCC2CN(C)CCO2)sc2ncnc(Nc3ccc(F)cc3OC3CCCNC3)c12 (stereo not drawn) [Example 55] | 51
Cc1c(C(N)=O)sc2ncnc(Nc3ccc(F)cc3O[C@H]3CCCN(CCC(F)(F)F)C3)c12 [Example 9] | 180
Cc1c(C(=O)NCC(N)=O)sc2ncnc(Nc3ccc(F)cc3OC3CCOCC3)c12 [Example 128] | 41
CSCCCNC(=O)c1sc2ncnc(Nc3cccnc3OC3CCOCC3)c2c1C [Example 279] | 77
CC(=O)N1CC[C@@H](Oc2cc(F)ccc2Nc2ncnc3sc(C(N)=O)c(C)c23)C1 [Example 98, 4-[2-((R)-1-Acetyl-pyrrolidin-3-yloxy)-4-fluoro-phenylamino]-5-methyl-thieno[2,3-d]pyrimidine-6-carboxylic acid amide] | 94
Cc1c(C(N)=O)sc2ncnc(Nc3ccc(F)cc3O[C@H]3CCCN(CC(C)C)C3)c12 [Example 7] | 4400
Cc1c(C(=O)NCCOC(F)(F)F)sc2ncnc(Nc3ccc(F)cc3OC3CCCNC3)c12 (stereo not drawn) [Example 38] | 100
Cc1c(C(=O)NC2CCN(C)CC2)sc2ncnc(Nc3cccnc3O[C@@H]3CCCOC3)c12 [Example 263] | 115
CONC(=O)c1sc2ncnc(Nc3cccnc3O[C@@H]3CCCOC3)c2c1C [Example 261] | 46
COC(=O)c1sc2ncnc(Nc3ccc(F)cc3O[C@H]3C[C@H]4COC(=O)N4C3)c2c1C [Example 114, 4-[4-Fluoro-2-((6S,7aS)-3-oxo-tetrahydro-pyrrolo[1,2-d]oxazol-6-yloxy)-phenylamino]-5-methyl-thieno[2,3-d]pyrimidine-6-carboxylic acid methyl ester] | 550
Cc1c(C(=O)NCCN2CCCCC2)sc2ncnc(Nc3ccc(F)cc3OC3CCOCC3)c12 [Example 222] | 51
Cc1c(C(=O)N(C)CC2CCCCC2)sc2ncnc(Nc3ccc(F)cc3OC3CCCNC3)c12 (stereo not drawn) [Example 36] | 790
CCN1CCC[C@@H]1CNC(=O)c1sc2ncnc(Nc3ccc(F)cc3OC3CCCNC3)c2c1C (stereo partly drawn) [Example 52] | 130

Compound | IC50 [nM]
Cc1c(C(=O)NCC2CCC(=O)N2)sc2ncnc(Nc3ccc(F)cc3OC3CCOCC3)c12 (stereo not drawn) [Example 150] | 70
Cc1c(C(=O)NCCCN(C)C)sc2ncnc(Nc3cccnc3O[C@H]3CCOC3)c12 [Example 270, 5-Methyl-4-{2-[(S)-(tetrahydro-furan-3-yl)oxy]-pyridin-3-ylamino}-thieno[2,3-d]pyrimidine-6-carboxylic acid (3-dimethylamino-propyl)-amide] | 298
Cc1c(C(=O)NC(C)(C)CO)sc2ncnc(Nc3ccc(F)cc3OC3CCOCC3)c12 [Example 226] | 55
Cc1c(C(N)=O)sc2ncnc(Nc3ccc(C(F)(F)F)cc3O[C@H]3CCCNC3)c12 [Example 65, 5-Methyl-4-[2-((S)-piperidin-3-yloxy)-4-trifluoromethyl-phenylamino]-thieno[2,3-d]pyrimidine-6-carboxylic acid amide] | 190
Cc1c(C(=O)NCCC2CCCN2C)sc2ncnc(Nc3ccc(F)cc3OC3CCCNC3)c12 (stereo not drawn) [Example 53] | 46
CSCCNC(=O)c1sc2ncnc(Nc3ccc(F)cc3OC3CCOCC3)c2c1C [Example 234] | 90
Cc1c(C(=O)N[C@H]2CC[C@@H](O)CC2)sc2ncnc(Nc3ccc(F)cc3OC3CCOCC3)c12 [Example 191] | 47
CC(=O)N1CCC[C@@H](Oc2cc(F)ccc2Nc2ncnc3sc(C(N)=O)c(C)c23)C1 [Example 83] | 120
Cc1c(C(=O)NCC(C)(C)Cl)sc2ncnc(Nc3ccc(F)cc3OC3CCCNC3)c12 (stereo not drawn) [Example 48] | 75
Cc1c(C(=O)NC2CCOC2)sc2ncnc(Nc3ccc(F)cc3OC3CCOCC3)c12 (stereo not drawn) [Example 202] | 70
CCCOCCNC(=O)c1sc2ncnc(Nc3ccc(F)cc3OC3CCOCC3)c2c1C [Example 161] | 56
Cc1c(C(N)=O)sc2ncnc(Nc3ccc(C#N)cc3O[C@H]3CCCNC3)c12 [Example 67, 4-[4-Cyano-2-((S)-piperidin-3-yloxy)-phenylamino]-5-methyl-thieno[2,3-d]pyrimidine-6-carboxylic acid amide] | 46
Cc1c(C(=O)Nc2ccn(C)c(=O)n2)sc2ncnc(Nc3ccc(F)cc3OC3CCOCC3)c12 [Example 247] | 44
Cc1c(C(=O)NCCc2cn[nH]c2O)sc2ncnc(Nc3ccc(F)cc3OC3CCOCC3)c12 [Example 195] | 67
Cc1c(C(=O)NCC[S+](C)[O-])sc2ncnc(Nc3cccnc3OC3CCOCC3)c12 (stereo not drawn) [Example 280] | 40

More lines, now with the values ahead:

IC50 [nM] | Compound
29 | Cc1c(C(=O)NCCCN2CCCC2)sc2ncnc(Nc3ccc(F)cc3OC3CCOCC3)c12 [Example 118]
40 | Cc1c(C(=O)NCc2nccn2C)sc2ncnc(Nc3ccc(F)cc3O[C@H]3CCCNC3)c12 [Example 14]
9 | Cc1c(C(N)=O)sc2ncnc(Nc3ccc(F)cc3O[C@H]3CCOC3)c12 [Example 109]
16 | Cc1c(C(=O)NCC#CCN)sc2ncnc(Nc3ccc(F)cc3OC3CCOCC3)c12 [Example 134]
23 | Cc1c(C(=O)NCCCCCN(C)C)sc2ncnc(Nc3ccc(F)cc3OC3CCOCC3)c12 [Example 168]
22 | Cc1c(C(=O)NCCCN2CCN(C)CC2)sc2ncnc(Nc3ccc(F)cc3OC3CCOCC3)c12 [Example 120]
38 | Cc1c(C(=O)NC2CCN(C)CC2)sc2ncnc(Nc3ccc(F)cc3O[C@@H]3CCCOC3)c12 [Example 259, 4-{4-Fluoro-2-[(R)-(tetrahydro-pyran-3-yl)oxy]-phenylamino}-5-methyl-thieno[2,3-d]pyrimidine-6-carboxylic acid (1-methyl-piperidin-4-yl)-amide]
26 | Cc1c(C(=O)NCCC2CCCN2C)sc2ncnc(Nc3ccc(F)cc3OC3CCOCC3)c12 (stereo not drawn) [Example 119]
38 | Cc1c(C(=O)NCCCCO)sc2ncnc(Nc3ccc(F)cc3OC3CCOCC3)c12 [Example 155]
7 | Cc1c(C(=O)NCCCN(C)C)sc2ncnc(Nc3ccc(F)cc3O[C@@H]3CCCN(S(C)(=O)=O)C3)c12 [Example 85]
23 | Cc1c(C(=O)NCC#CCN(C)C)sc2ncnc(Nc3cccnc3O[C@@H]3CCCOC3)c12 [Example 264]
15 | Cc1c(C(=O)N[C@H](C)C(=O)O)sc2ncnc(Nc3ccc(F)cc3OC3CCOCC3)c12 [Example 147]
21 | Cc1c(C(=O)NCc2cccnc2)sc2ncnc(Nc3ccc(F)cc3OC3CCOCC3)c12 [Example 213]
37 | CNC(=O)CCNC(=O)c1sc2ncnc(Nc3ccc(F)cc3OC3CCOCC3)c2c1C [Example 166]
22 | Cc1c(C(=O)NCCCN2CCCC2)sc2ncnc(Nc3ccc(F)cc3O[C@H]3CCOC3)c12 [Example 111]
34 | Cc1c(C(=O)NCc2cccs2)sc2ncnc(Nc3ccc(F)cc3OC3CCCNC3)c12 (stereo not drawn) [Example 30]
26 | Cc1c(C(=O)NCCCN(C)C)sc2ncnc(Nc3ccc(F)cc3O[C@H]3CCOC3)c12 [Example 108, 4-{4-Fluoro-2-[(S)-(tetrahydro-furan-3-yl)oxy]-phenylamino}-5-methyl-thieno[2,3-d]pyrimidine-6-carboxylic acid (3-dimethylamino-propyl)-amide]
20 | Cc1c(C(=O)NCCCN2CCCC2)sc2ncnc(Nc3ccc(F)cc3O[C@@H]3CCCOC3)c12 [Example 258, 4-{4-Fluoro-2-[(R)-(tetrahydro-pyran-3-yl)oxy]-phenylamino}-5-methyl-thieno[2,3-d]pyrimidine-6-carboxylic acid (3-pyrrolidin-1-yl-propyl)-amide]
30 | Cc1c(C(=O)NCc2cc[nH]n2)sc2ncnc(Nc3ccc(F)cc3OC3CCOCC3)c12 [Example 182]
2 | Cc1c(C(N)=O)sc2ncnc(Nc3ccc(F)cc3O[C@@H]3CCCN(S(C)(=O)=O)C3)c12 [Example 84, 4-[4-Fluoro-2-((R)-1-methanesulfonyl-piperidin-3-yloxy)-phenylamino]-5-methyl-thieno[2,3-d]pyrimidine-6-carboxylic acid amide]
36 | COc1ccc(CNC(=O)c2sc3ncnc(Nc4ccc(F)cc4OC4CCCNC4)c3c2C)cc1 (stereo not drawn) [Example 45]
33 | COC[C@H]1CCCN1CCCNC(=O)c1sc2ncnc(Nc3ccc(F)cc3OC3CCOCC3)c2c1C [Example 121]
20 | Cc1c(C(N)=O)sc2ncnc(Nc3ccc(F)cc3O[C@@H]3CCCN(CCO)C3)c12 [Example 80]
32 | Cc1c(C(=O)N[C@H]2CC[C@H](CO)CC2)sc2ncnc(Nc3ccc(F)cc3OC3CCOCC3)c12 [Example 129]
30 | Cc1c(C(=O)NCC2CNC(=O)C2)sc2ncnc(Nc3ccc(F)cc3OC3CCOCC3)c12 (stereo not drawn) [Example 199]
6 | Cc1c(C(N)=O)sc2ncnc(Nc3ccc(F)cc3O[C@@H]3CCCN(Cc4cccn4C)C3)c12 [Example 81]
39 | COCCONC(=O)c1sc2ncnc(Nc3ccc(F)cc3OC3CCOCC3)c2c1C [Example 245]
27 | Cc1c(C(=O)NCC#N)sc2ncnc(Nc3ccc(F)cc3OC3CCOCC3)c12 [Example 164]
40 | Cc1c(C(=O)NC2CCN(C)CC2)sc2ncnc(Nc3ccc(F)cc3O[C@H]3CCOC3)c12 [Example 271, 4-{4-Fluoro-2-[(S)-(tetrahydro-furan-3-yl)oxy]-phenylamino}-5-methyl-thieno[2,3-d]pyrimidine-6-carboxylic acid (1-methyl-piperidin-4-yl)-amide]
